Source: patent US20250136722A1, “CYTOTOXICITY TARGETING CHIMERAS” (GLAXOSMITHKLINE INTELLECTUAL PROPERTY DEVELOPMENT LIMITED, priority 2021, published 2025)
Several values for one entry are separate records, joined by “and”; a condition that tells them apart may be missing. Equal entries are not always repeated.

Key:
[1] = molecular target: Anti-cotinine antibody SEQ ID NO: 9 / SEQ ID NO: 10 (humanized version); assay: Binding of humanized anti-cotinine antibody to ARM compounds by SPR, Biacore 8k, 25° C. (Example 202); details: top concentration 2.50E−08 M
Excerpt: (§1) Anti-cotinine antibodies having a heavy chain sequence of SEQ ID NO: 9 and a light chain sequence of SEQ ID NO: 10 (humanized version) or a heavy chain sequence of SEQ ID NO: 11 and a light chain sequence of SEQ ID NO: 12 (rabbit version) were captured via the Fc domain to a protein A or A/G surface on flow cell 2 of a CM5 sensor chip using the Biacore 8k.
(§2) After antibody capture, a 1500 second wait step was included to reduce drift in the binding step. ARM compounds of Formula (I) were then flowed over the captured antibodies at varying top concentrations ranging from 250 nM to 4 μM (see Table 6 below for top concentration values). The top concentration was diluted 4-fold over 5 dilutions (with a 0 nM compound cycle included to blank subtract the data). Association and dissociation times of the ARMs compounds of Formula (I) varied between experiments as follows and indicated in Table 6 below: reference 1—association for 600 seconds and dissociation for 1200 seconds at 20 μl/min; reference 2—association for 240 seconds and dissociation for 300 seconds at 30 μl/min; reference 3—association for 360 seconds and dissociation for 600 seconds at 30 μl/min. Anti-cotinine antibody bound to the protein A or A/G surface was regenerated using 50 mM NaOH. Experiments were run at 25° C. at pH 7.4 using HBS-EP+ buffer using Biacore 8K control software and evaluated using Biacore Insight Evaluation software. Curves were fit with the 1:1 kinetic fit inherent to the software, utilising a local Rmax and local drift setting.
(§3) Anti-cotinine antibody was tested for binding to ARMs compounds of Formula (I) of the invention in the above assay in or more experimental runs and the results are shown in Table 6 below. Affinity is reported as a pKd value. The pKd value is the negative log of the Kd value, wherein the Kd value is the dissociation constant measured in molar (M) as noted above. For compounds tested in more than one experimental run, the pKd value is reported as an average.

[2] = test system: Anti-cotinine antibody SEQ ID NO: 11 / SEQ ID NO: 12 (rabbit version); assay: Binding of rabbit anti-cotinine antibody to ARM compounds by SPR, Biacore 8k, 25° C. (Example 202)
Excerpt: as §1, §2, §3

[3] = test system: endogenous target monocytes in human PBMC; assay: PBMC ex vivo monocyte depletion flow cytometry assay (Example 200); type: cell-based; details: with anti-cotinine antibody SEQ ID NO: 11/12, 18-24 hours, read-out: Ex Vivo Depletion Assay pEC50 (converted)
Protocol: A human PBMC (peripheral blood mononuclear cells) monocyte depletion flow cytometry assay was developed to screen compounds in a 384-well plate format. This assay incorporated endogenous natural killer cells to deplete endogenous target monocytes.
To screen compounds in the human PBMC monocyte depletion flow cytometry assay, 11-point dose-response curves were made from 1 mM stocks in neat DMSO by serially diluting an ARM compound of Formula (I) four-fold into a 384-well plate row-wise. These serially diluted compounds were then stamped into a flat bottom polypropylene 384-well plate (Greiner Bio-One) at 100 nL/well. Fifty microliters of 30 μg/mL anti-cotinine antibody having a heavy chain sequence of SEQ ID NO: 11 and a light chain sequence of SEQ ID NO: 12 (rabbit variable region with human IgG1 Fc domain containing a DE mutation (S239D/1332E)) that had been diluted in assay medium (RPMI 1640 (Gibco) containing 10% fetal bovine serum (Gibco), 1% Glutamax (Gibco) and 1% sodium pyruvate (Corning) was added to the wells of the plate. The plate was centrifuged for 1 min at 500 rpm (revolutions per minute) and then shaken for 5 min at room temperature. The plate was incubated for 15 minutes at 37° C./5% CO2.
Frozen PBMC cells (HemaCare BioResearch) were thawed and centrifuged at 1,200 rpm for 4 minutes. The cells were diluted to a cell density of 2×10^6 cells/mL in assay medium. Fifty microliters of the diluted cells were added to the wells of the plate. The plate was centrifuged for 1 min at 500 rpm and incubated for 18-24 hours at 37° C./5% CO2.
After 18-24 hours incubation, 2 μL of 6.25 μg human FC block (BD Pharmingen) that was diluted in assay medium was added to the wells of the plate. The plate was centrifuged for 1 minute at 500 rpm and then incubated at room temperature for 15 minutes. Five microliters of 750 nM Helix NP NIR (Biolegend) that had been diluted in assay medium was added to the wells of the plate. Nine microliters of antibody cocktail containing 1/5 diluted fluorescein isothiocyanate (FITC) labeled anti-CD45 antibody (Beckman Coulter), PC7 labeled anti-CD14 antibody (Beckman Coulter) and phycoerythrin (PE) anti-CD4 antibody (Beckman Coulter) was then added to the wells of the plate. The plate was centrifuged for 1 min at 500 rpm and incubated for 30 minutes at 4-8° C. Samples from the plate were run on BD FACS Canto II flow cytometer and data was analyzed using FlowJo software.
ARMs compounds of Formula (I) of the invention were tested for the ability to deplete monocytes in the above assay in one or more experimental runs and the results are shown in Table 3 below. Potency of the compounds of the invention is reported as a pEC50 value. The pEC50 value is the negative log of the EC50 value, wherein the EC50 value is the half maximal effective concentration measured in molar (M). For compounds tested in more than one experimental run, the pEC50 value is reported as an average or as the individual values measured

[4] = reference 3: association 360 s, dissociation 600 s at 30 μl/min
[5] = reference 3: association 360 s, dissociation 600 s at 30 μl/min, top concentration 2.50E−08 or 6.25E−09 M

| pKd ([2]; reference 2: association 240 s, dissociation 300 s at 30 μl/min, top concentration 1.00E−06 or 4.00E−06 M) | SMILES | kd ([1]; reference 1: association 600 s, dissociation 1200 s at 20 μl/min) | ka [1, 4] | kd [1, 4] | pKd [1, 4] | ka [2, 5] | kd [2, 5] | pKd [2, 5] | EC50 [3] |
| --- | --- | --- | --- | --- | --- | --- | --- | --- | --- |
| – | CC(C)N(C)[C@@H]1CC[C@H](N2CC[C@H](Nc3ncnc4ccc(C(F)(F)F)cc34)C2=O)[C@H](NC(=O)[C@H]2CC[C@H](NC(=O)CCCO[C@H]3CC[C@H](OCCNC(=O)[C@H]4CC(=O)N(C)[C@@H]4c4cccnc4)CC3)CC2)C1 [Example 1, (2S,3S)-N-(2-(((1R,4S)-4-(4-(((1R,4R)-4-(((1R,2S,5R)-5-(Isopropyl(methyl)amino)-2-((S)-2-oxo-3-((6-(trifluoromethyl)quinazolin-4-yl)amino)pyrrolidin-1-yl)cyclohexyl)carbamoyl)cyclohexyl)amino)-4-oxobutoxy)cyclohexyl)oxy)ethyl)-1-methyl-5-oxo-2-(pyridin-3-yl)pyrrolidine-3-carboxamide] | 0.000456 s⁻¹ and 0.000649 s⁻¹ | 1.64e+06 M⁻¹ s⁻¹ | 0.000414 s⁻¹ | 9.6 | 5.57e+06 M⁻¹ s⁻¹ | 0.000156 s⁻¹ | 10.55 | – |
| Poor fit | CN1C(=O)C[C@H](C(=O)NCCO[C@H]2CC[C@H](OCCCC(=O)N[C@H]3CC[C@H](C(=O)N[C@@H]4C[C@H](NC(C)(C)C)CC[C@@H]4N4CC[C@H](Nc5ncnc6ccc(C(F)(F)F)cc56)C4=O)CC3)CC2)[C@H]1c1cccnc1 [Example 10] | – | 1.42e+06 M⁻¹ s⁻¹ | 0.000484 s⁻¹ | 9.47 | – | – | – | – |
| – | CN1C(=O)C[C@H](C(=O)NCCOCCOCCOCCOCCOCCC(=O)N[C@@H]2C[C@H](NC(C)(C)C)CC[C@@H]2N2CC[C@H](Nc3ncnc4ccc(C(F)(F)F)cc34)C2=O)[C@H]1c1cccnc1 [Example 37] | – | – | – | – | – | – | – | 5.01 nM |
| – | CN1C(=O)C[C@H](C(=O)NCCOCCOCCOCCOCCOCCOCCC(=O)N[C@@H]2C[C@H](NC(C)(C)C)CC[C@@H]2N2CC[C@H](Nc3ncnc4ccc(C(F)(F)F)cc34)C2=O)[C@H]1c1cccnc1 [Example 38] | – | – | – | – | – | – | – | 1.58 nM |
